Counter-ions that a name gives are not always drawn. Like-named read-outs stand apart in the source and are kept apart here.
How the values were obtained:
[1] = tested on: C33A cervical carcinoma cells; assay: cells; type: cell-based; details: Homo sapiens, C-33-A, read-out: IC50 (μM) C33A, Effect on Cancer Cells Viability
From the text: (§1) […]. […] […]. The total dimethyl sulfoxide on the cells was 1%. […] […].
(§2) As depicted in Table 4, these compounds were efficient in decreasing cellular ATP levels in HI 299 and C33A cancer cell lines. Nevertheless, these compounds are believed to have utility in the in vivo methods of the invention, i.e., treatment and prevention of cancer and viral infections, respectively. It should be noted that, although this cell-based assay is believed to be indicative of anti-oncogenic activity in vivo, it is not the only useful assay for evaluating the anti-oncogenic activity of Triheterocyclic Compounds of the invention. In addition, the anti-viral and other biological activity of compounds of the invention can be determined and evaluated in other assay systems known to the skilled artisan.

[2] = tested on: H1299 human non-small cell lung cancer cells; assay: Cell viability by cellular ATP levels (ViaLight), H1299 cells; type: cell-based; details: Homo sapiens
From the text: as §1, §2

[3] = C33A, cellular ATP levels as described in Example 2
[4] = NCI-H1299, H1299, cellular ATP levels as described in Example 2, read-out: IC50 (μM) H1299, Effect on Cancer Cells Viability

Row | SMILES | IC50 [1, 3] [µM] | IC50 [2, 4] [µM] | IC50 [1] [µM] | IC50 ([2]; NCI-H1299, read-out: IC50 (μM) H1299, Effect on Cancer Cells Viability) [µM]
1 | COC1=CC(c2cc3ccccc3n2C(=O)N(C)C)=N/C1=C\c1[nH]c(C)cc1C [Compound 39, 2-[5-(3,5-Dimethyl-1H-pyrrol-2-ylmethylene)-4-methoxy-5H-pyrrol-2-yl]-indole-1-carboxylic acid dimethylamide] | 2.95 | 5.67 |  | 
2 | COC1=CC(c2[nH]c3ccccc3c2CN2CCOCC2)=N/C1=C\c1[nH]c(C)cc1C [Compound 6, 2-[5-(3,5-Dimethyl-1H-pyrrol-2-ylmethylene)-4-methoxy-5H-pyrrol-2-yl]-3-morpholin-4-ylmethyl-1H-indole] | 0.19 | 0.267 |  | 
3 | COC(=O)CCc1c(C)[nH]c(/C=C2\N=C(c3cc4ccccc4[nH]3)C=C2OC)c1C [Compound 63, 3-{5-[5-(1H-Indol-2-yl)-3-methoxy-pyrrol-2-ylidenemethyl]-2,4-dimethyl-1H-pyrrol-3-yI}-propionic acid methyl ester] |  |  | 0.548 | 0.753
4 | COC1=CC(c2[nH]c3ccccc3c2C(=O)c2ccsc2)=N/C1=C\c1[nH]c(C)cc1C [Compound 12, {2-[5-(3,5-Dimethyl-1H-pyrrol-2-ylmethylene)-4-methoxy-5H-pyrrol-2-yl]-1H-indol-3-yl}-thiophen-3-yl-methanone] | 3.6 | 2.95 |  | 
5 | COC1=CC(c2cc3cc(OC)c(OC)cc3n2C(=O)OC(C)(C)C)=N/C1=C\c1[nH]c(C)cc1C [Compound 5, 2-[5-(3,5-Dimethyl-1H-pyrrol-2-ylmethylene)-4-methoxy-5H-pyrrol-2-yl]-5,6-dimethoxy-indole-1-carboxylic acid tert-butyl ester] | 2.24 | 2.26 |  | 
6 | C=CCNCc1c(C2=N/C(=C\c3[nH]c(C)cc3C)C(OC)=C2CO)[nH]c2ccccc12 [Compound 13, [2-(3-Allylaminomethyl-1H-indol-2-yl)-5-(3,5-dimethyl-1H-pyrrol-2-ylmethylene)-4-methoxy-5H-pyrrol-3-yl]-methanol] | 0.44 | 0.717 |  | 
7 | COC1=CC(c2cc3ccccc3n2C(=O)Nc2ccc(OCc3ccccc3)cc2)=N/C1=C\c1[nH]c(C)cc1C [Compound 54, 2-[5-(3,5-Dimethyl-1H-pyrrol-2-ylmethylene)-4-methoxy-5H-pyrrol-2-yl]-indole-1-carboxylic acid (4-benzyloxy-phenyl)-amide] | 0.145 | 0.187 |  | 
8 | COC1=CC(c2cc3ccccc3n2C(=O)OCC(O)CO)=N/C1=C\c1[nH]c(C)cc1C (stereo not drawn) [Compound 44, 2-[5-(3,5-Dimethyl-1H-pyrrol-2-ylmethylene)-4-methoxy-5H-pyrrol-2-yl]-indole-1-carboxylic acid 2,3-dihydroxy-propyl ester] | 1.26 | 1.28 |  | 
9 | COC1=C(CO)C(c2[nH]c3ccccc3c2CNCCO)=N/C1=C\c1[nH]c(C)cc1C [Compound 9, 2-({2-[5-(3,5-Dimethyl-1H-pyrrol-2-ylmethylene)-3-hydroxymethyl-4-methoxy-5H-pyrrol-2-yl]-1H-indol-3-ylmethyl}-amino)-ethanol] | 2.21 | 4.43 |  | 
10 | COC1=CC(c2[nH]c3ccccc3c2CN2CCN(c3ccccc3)CC2)=N/C1=C\c1[nH]c(C)cc1C [Compound 8, 2-[5-(3,5-Dimethyl-1H-pyrrol-2-ylmethylene)-4-methoxy-5H-pyrrol-2-yl]-3-(4-phenyl-piperazin-1-ylmethyl)-1H-indole] | 1.76 | 1.88 |  | 
11 | COC1=CC(c2[nH]c3ccccc3c2I)=N/C1=C\c1[nH]c(C)c(I)c1C [Compound 17, 3-Iodo-2-[5-(4-iodo-3,5-dimethyl-1H-pyrrol-2-ylmethylene)-4-methoxy-5H-pyrrol-2-yl]-1H-indole] | 5.69 | 5.37 |  | 
12 | COC1=CC(c2cc3ccccc3n2C(=O)c2ccccc2)=N/C1=C/c1[nH]c(C)cc1C [Compound 43, {2-[5-(3,5-Dimethyl-1H-pyrrol-2-ylmethylene)-4-methoxy-5H-pyrrol-2-yl]-indol-1-yl}-phenyl-methanone] | 0.196 | 0.298 |  | 
13 | COC1=CC(c2cc3ccccc3n2C(=O)C(C)C)=N/C1=C\c1[nH]c(C)cc1C [Compound 35, 1-{2-[5-(3,5-Dimethyl-1H-pyrrol-2-ylmethylene)-4-methoxy-5H-pyrrol-2-yI]-indol-1-yl}-2-methyl-propan-1-one] | 0.167 | 0.197 |  | 
14 | COC1=CC(c2[nH]c3ccccc3c2C(=O)c2ccc(-c3ccccn3)s2)=N/C1=C\c1[nH]c(C)cc1C [Compound 22, {2-[5-(3,5-Dimethyl-1H-pyrrol-2-ylmethylene)-4-methoxy-5H-pyrrol-2-yl]-1H-indol-3-yl}-(5-pyridin-2-yl-thiophen-2-yl)-methanone] | 6.46 | 7.19 |  | 
15 | COC1=CC(c2cc3ccccc3n2CCOS(=O)(=O)O)=N/C1=C\c1[nH]c(C)cc1C [Compound 65, Sodium salt of Sulfuric acid mono-(2-{2-[5-(3,5-dimethyl-1H-pyrrol-2-ylmethylene)-4-methoxy-5H-pyrrol-2-yl]-indol-1-yl}-ethyl) ester] | 5.97 | 7.89 |  | 
16 | COC1=CC(c2[nH]c3ccccc3c2C(=O)NCCCO)=N/C1=C\c1[nH]c(C)cc1C [Compound 48, 2-[5-(3,5-Dimethyl-1H-pyrrol-2-ylmethylene)-4-methoxy-5H-pyrrol-2-yl]-1H-indole-3-carboxylic acid (3-hydroxy-propyl)-amide] | 11.1 | 50 |  | 
17 | COC1=CC(c2cc3ccccc3n2COC(=O)C(C)(C)C)=N/C1=C\c1[nH]c(C)cc1C [Compound 64, 2,2-Dimethyl-propionic acid 2-[5-(3,5-dimethyl-1H-pyrrol-2-ylmethylene)-4-methoxy-5H-pyrrol-2-yl]-indol-1-ylmethyl ester] | 14.2 | 13.3 |  | 

The next lines start with results.

Row | IC50 [1, 3] [µM] | IC50 [2, 4] [µM] | SMILES | IC50 [1] [µM] | IC50 ([2]; NCI-H1299, read-out: IC50 (μM) H1299, Effect on Cancer Cells Viability) [µM]
18 | 0.52 | 0.3 | COC1=CC(c2cc3ccccc3[nH]2)=N/C1=C\c1[nH]ccc1OC [Compound 3, 2-[4-Methoxy-5-(3-methoxy-1H-pyrrol-2-ylmethylene)-5H-pyrrol-2-yl]-1H-indole] |  | 
19 | 0.261 | 0.245 | Cc1cc(C)c(/C=C2\N=C(c3cc4ccc(Cl)cc4[nH]3)C=C2OC(C)C)[nH]1 [Compound 46, 6-Chloro-2-[5-(3,5-dimethyl-1H-pyrrol-2-ylmethylene)-4-isopropoxy-5H-pyrrol-2-yl]-1H-indole] |  | 
20 | 1.29 | 1.35 | COC1=CC(c2[nH]c3ccccc3c2CO)=N/C1=C\c1[nH]c(C)cc1C [Compound 37] |  | 
21 | 2.54 | 5.96 | Cc1cc(C)c(/C=C2\N=C(c3cc4ccc(O)cc4[nH]3)C=C2OC(C)C)[nH]1 [Compound 56, 2-[5-(3,5-Dimethyl-1H-pyrrol-2-ylmethylene)-4-isopropoxy-5H-pyrrol-2-yl]-1H-indol-6-ol] |  | 
22 | 8.28 | 9.65 | COC1=CC(c2cc3ccccc3[nH]2)=N/C1=C(\C)c1[nH]c(C)cc1C [Compound 47, 2-{5-[1-(3,5-Dimethyl-1H-pyrrol-2-yl)-ethylidene]-4-methoxy-5H-pyrrol-2-yl)-1H-indole] |  | 
23 | 1.44 | 0.935 | COC1=CC(c2cc3cc(OC)ccc3[nH]2)=N/C1=C\c1[nH]c(C)cc1C [Compound 15, 2-[5-(3,5-Dimethyl-1H-pyrrol-2-ylmethylene)-4-methoxy-5H-pyrrol-2-yl]-5-methoxy-1H-indole] |  | 
24 | 0.358 | 0.458 | Cc1cc(C)c(/C=C2/N=C(c3cc4cc(F)ccc4[nH]3)C=C2OC(C)C)[nH]1 [Compound 42, 2-[5-(3,5-Dimethyl-1H-pyrrol-2-ylmeythylene)-4-isopropoxy-5H-pyrrol-2-yl]-5-fluoro-1H-indole] |  | 
25 | 0.65 | 0.53 | COC1=CC(c2cc3ccccc3[nH]2)=N/C1=C\c1[nH]c(C)c(I)c1C [Compound 2, 2-[5-(4-Iodo-3,5-dimethyl-1H-pyrrol-2-ylmethylene)-4-methoxy-5H-pyrrol-2-yl]-1H-indole] |  | 
26 | 0.25 | 0.215 | COC1=CC(c2cc3cc(OC)c(OC)cc3[nH]2)=N/C1=C\c1[nH]c(C)cc1C [Compound 4, 2-[5-(3,5-Dimethyl-1H-pyrrol-2-ylmethylene)-4-methoxy-5H-pyrrol-2-yl]-5,6-dimethoxy-1H-indole] |  | 
27 | 2 | 3 | COC1=CC(c2cc3ccccc3n2C(=O)OC(C)(C)C)=N/C1=C\c1[nH]c(C)cc1C [Compound 49, 2-[5-(3,5-Dimethyl-1H-pyrrol-2-ylmethylene)-4-methoxy-5H-pyrrol-2-yl]-indole-1-carboxylic acid tert-butyl ester] |  | 
28 | 2.23 | 1.73 | COC1=CC(c2cc3cc(Br)ccc3[nH]2)=N/C1=C\c1[nH]c(C)cc1C [Compound 7, 5-Bromo-2-[5-(3,5-dimethyl-1H-pyrrol-2-ylmethylene)-4-methoxy-5H-pyrrol-2-yl]-1H-indole] |  | 
29 | 3.75 | 5.9 | Cc1cc(C)c(/C=C2\N=C(c3cc4c(O)cccc4[nH]3)C=C2OC(C)C)[nH]1 [Compound 57, 2-[5-(3,5-Dimethyl-1H-pyrrol-2-ylmethylene)-4-isopropoxy-5H-pyrrol-2-yl]-1H-indol-4-ol] |  | 
30 | 0.226 | 0.342 | Cc1cc(C)c(/C=C2\N=C(c3cc4c(OC(=O)OC(C)(C)C)cccc4[nH]3)C=C2OC(C)C)[nH]1 [Compound 38, Carbonic acid tert-butyl ester 2-[5-(3,5-dimethyl-1H-pyrrol-2-ylmethylene)-4-isopropoxy-5H-pyrrol-2-yl]-1H-indol-4-yl ester] |  | 

From US20050267073A1, “Triheterocyclic compounds, compositions, and methods for treating cancer or viral diseases” (priority 2004, published 2005)
